Data from US9389223B2, “Pharmacodynamic assays” (The United States of America, as represented by the …, priority 2004, dated 2016).

Key:
[1] = test system: K562 chronic myelogenous leukemia cells; test: Flow cytometry of apoptosis (activated caspase 3) in K562 cells; assay type: cell-based, human; settings: K562, 1 μM, 48 hours, single drug
Protocol: (§1) K562 chronic myelogenous leukemia cells were incubated with vehicle alone, 1 μM imatinib (the anticancer drug also known as Gleevec), 1 μM MS-275, or both for 48 hours. The cells were then stained for acetylated lysine as described above and co-stained with antibody to activated caspase 3 as an indicator of cells undergoing apoptosis. Dot plots display acetylated lysine on the x-axis and activated caspase 3 on the y-axis. The multiparameter flow cytometric assay is a powerful tool to monitor pharmacodynamic changes induced by anticancer drugs used in monotherapy or combination therapy protocols. HDAC inhibitors have been reported to promote imatinib-mediated apoptosis in Bcr/Abl+ human myeloid leukemia cells, including imatinib-resistant cells. The effect of MS-275 and imatinib were therefore examined, alone and in combination, on apoptosis in the Bcr/Abl+ cell line K562. Because both MS-275 and imatinib have been reported to induce apoptosis associated with caspase 3 activation, an antibody was used that specifically recognizes activated caspase 3 in a flow assay. This caspase 3 flow assay effectively monitors drug-induced apoptosis. When combined detection of acetylated lysine, this flow assay permitted simultaneous monitoring of apoptosis (caspase 3) and acetylated lysine.

[2] = test system: acetylated lysine; test: Flow cytometry of acetylated lysine in K562 cells co-stained for activated caspase 3; assay type: cell-based, human; settings: K562, 1 μM, 48 hours
Protocol: as §1

[3] = test system: Hsp70; test: Flow cytometry of Hsp70 levels in K562 cells; assay type: cell-based; settings: single drug, relative to control cells
Excerpt: (§2) Leukemia K562 cell line samples containing approximately 5×10^6 to 1×10^7 cells were exposed to either the anti-cancer drug 17-allylaminogeldanamycin (17-AAG) or one of the deacetylase inhibitors MS-275 or trichostatin A (TSA). Some samples received both 17-AAG and TSA or both 17-AAG and MS-275. Control samples received no drug. Administration of the 17-AAG anti-cancer drug led to functional changes in Hsp90 and increased expression of Hsp70. […] TSA is a deacetylase inhibitor that can affect acetylation of numerous proteins. In this study, the effect of TSA on tubulin acetylation was observed using an antibody that specifically binds to acetylated tubulin.
(§3) After treatment with the various drugs, the cells were resuspended in fixation solution (0.4% paraformaldehyde in PBS), incubated at 37° C. for 5-10 minutes and washed with wash buffer. The fixed cells were then resuspended in permeabilization solution (4% Triton X-100 in wash buffer) and incubated at room temperature for 5 minutes. Cells were incubated for 1 hour at room temperature with antibodies to the various pharmacodynamic markers. Several cell samples were incubated with antibodies to several markers at once. […] Fluorescence associated with the cells was detected and quantified by flow cytometry.

[4] = test system: acetylated tubulin; test: Flow cytometry of acetylated tubulin in K562 cells; assay type: cell-based; settings: single drug
Excerpt: as §2, §3

SMILES: Cc1ccc(NC(=O)c2ccc(CN3CCN(C)CC3)cc2)cc1Nc1nccc(-c2cccnc2)n1 [imatinib, 4-[(4-Methyl-1-piperazinyl)methyl]-N-[4-methyl-3-[[4-(3-pyridinyl)-2-yrimidinyl]amino]-phenyl]benzamide methanesulfonate]
- percent of apoptotic cells (activated caspase 3) [1]: increased the percent of apoptotic cells
- acetylation of the activated caspase 3 positive cell population [2]: lost acetylation

SMILES: Nc1ccccc1NC(=O)c1ccc(CNC(=O)OCc2cccnc2)cc1 [MS-275, N-(2-aminophenyl)-4-[N-(pyridin-3-ylmethoxycarbonyl)aminomethyl]benzamide]
- cells with strongly upregulated acetylation [2]: over 50%

SMILES: C=CCNC1=C2C[C@@H](C)C[C@H](OC)[C@H](O)[C@@H](C)/C=C(\C)[C@H](OC(N)=O)[C@@H](OC)/C=C\C=C(/C)C(=O)NC(=CC1=O)C2=O [17-AAG, 17-allylaminogeldanamycin]
- levels of Hsp70 [3]: increased levels of Hsp70

SMILES: CC(/C=C/C(=O)NO)=C\[C@@H](C)C(=O)c1ccc(N(C)C)cc1 [TSA, trichostatin A]
- levels of acetylated tubulin [4]: increased levels of acetylated tubulin
